These results are taken from patent US9394297B2, “Amides as pim inhibitors” (AMGEN INC., priority 2012, dated 2016).

Experiment [1] addresses Pim-1 (Homo sapiens (Human), UniProt P11309). Kind of experiment: Pim-Mn enzyme assay (HTRF, 384-well), Pim-1. To be noted: read-out: Pim-1-Mn IC50 IP. Format: biochemical. On the technique in general: In TR-FRET formats the signal depends on donor and acceptor labels being close together.
Experiment [2] concerns the target Pim-2 (Homo sapiens (Human), UniProt Q9P1W9). Kind of experiment: Pim-Mn enzyme assay (HTRF, 384-well), Pim-2. Format: biochemical. To be noted: Pim-2 enzyme 0.5 pM, ATP 1.5 μM, BAD (S112) 0.5 μM, HTRF, 22-point curve; read-out: Pim-2-Mn IC50 IP.
Experiment [3] relates to KMS-12-BM myeloma cell line. Kind of experiment: Pim KMS-12 cell assay (phospho-BAD S112 / total BAD, MSD).
[4] abbreviates: Pim-1 enzyme 5 pM, ATP 1.5 μM, BAD (S112) 0.5 μM, HTRF, 22-point curve.
The mark [5] stands for this setting: Homo sapiens, KMS-12-BM, read-out: KMS-12-BM IC50 IP, KMS-12-BM cells, phospho-BAD (S112) vs total BAD, 1 hour 50 min with compound.
[6] abbreviates: read-out: KMS-12-BM IC50 IP, KMS-12-BM cells, phospho-BAD (S112) vs total BAD, 1 hour 50 min with compound.

SMILES strings stand for the structures. Like-named read-outs stand apart in the source and are kept apart here.

Pim-1, sequence (P11309 whole entry): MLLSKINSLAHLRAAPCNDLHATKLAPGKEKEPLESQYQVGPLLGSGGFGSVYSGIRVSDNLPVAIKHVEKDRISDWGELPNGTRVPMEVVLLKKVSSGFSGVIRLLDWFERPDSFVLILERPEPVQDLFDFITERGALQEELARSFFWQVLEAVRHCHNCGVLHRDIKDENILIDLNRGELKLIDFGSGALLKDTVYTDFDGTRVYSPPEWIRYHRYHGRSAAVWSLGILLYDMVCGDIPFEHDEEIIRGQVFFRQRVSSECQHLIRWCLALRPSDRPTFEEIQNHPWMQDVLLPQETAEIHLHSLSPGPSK
Pim-2, sequence (Q9P1W9 whole entry): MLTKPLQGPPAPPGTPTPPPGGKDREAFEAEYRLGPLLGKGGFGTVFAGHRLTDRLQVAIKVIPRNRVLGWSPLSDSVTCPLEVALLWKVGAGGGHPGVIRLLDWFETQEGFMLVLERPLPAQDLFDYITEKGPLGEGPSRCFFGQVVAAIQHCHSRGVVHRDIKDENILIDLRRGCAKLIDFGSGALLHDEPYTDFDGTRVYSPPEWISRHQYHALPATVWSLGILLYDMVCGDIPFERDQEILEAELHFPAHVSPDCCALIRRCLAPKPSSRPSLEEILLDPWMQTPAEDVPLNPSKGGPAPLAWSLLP

The IC50 is the concentration at which inhibition is half-maximal. Turning to `Cc1nc2cccc(-c3cc4c([nH]3)CCNC4=O)c2nc1N` [Example 218, 2-(3-amino-2-methylquinoxalin-5-yl)-6,7-dihydro-1H-pyrrolo[3,2-c]pyridin-4(5H)-one], the half-maximal inhibitory concentration (IC50) in experiment [1] (setting [4]) came out at 36 nM; in experiment [2] it was 17.4 nM; in experiment [3] (setting [5]), 1090 nM.
On to `CC1(C)CCCCN1c1cnc2cccc(-c3cc4c([nH]3)CCNC4=O)c2n1` [Example 212, 2-(3-(2,2-dimethylpiperidin-1-yl)quinoxalin-5-yl)-6,7-dihydro-1H-pyrrolo[3,2-c]pyridin-4(5H)-one], for which the IC50 worked out at 1.3 nM in experiment [1] (setting [4]), 2.3 nM in experiment [2] and 538 nM in experiment [3] (setting [5]).
As to `CC(C)(C)Nc1cnc2cccc(-c3cc4n(c3)CCNC4=O)c2n1` [Example 173, 7-(3-(tert-butylamino)quinoxalin-5-yl)-3,4-dihydropyrrolo[1,2-a]pyrazin-1(2H)-one], the concentration for half-maximal inhibition (IC50) in experiment [1] (setting [4]) worked out at 1.3 nM; in experiment [2], 1.4 nM; in experiment [3] (setting [5]) it was 181 nM.
The corresponding values for `Cc1nc2cccc(-c3cc4c([nH]3)CCNC4=O)c2nc1N[C@H]1CCCNC1` [Example 76, (S)-2-(2-methyl-3-(piperidin-3-ylamino)quinoxalin-5-yl)-6,7-dihydro-1H-pyrrolo[3,2-c]pyridin-4(5H)-one] are 8.1 nM, 27 nM and 6130 nM.
For `Cc1nc2cccc(-c3cc4c([nH]3)CCNC4=O)c2nc1NC1(CO)CC1` [Example 277, 2-(3-((1-(hydroxymethyl)cyclopropyl)amino)-2-methyl-5-quinoxalinyl)-1,5,6,7-tetrahydro-4H-pyrrolo[3,2-c]pyridin-4-one] the same measures were 1 nM, 0.4 nM and 169 nM.
As to `CCN(c1cnc2cccc(-c3cc4c([nH]3)CCNC4=O)c2n1)C(C)(C)C` [Example 220, 2-(3-(tert-butyl(ethyl)amino)quinoxalin-5-yl)-6,7-dihydro-1H-pyrrolo[3,2-c]pyridin-4(5H)-one], the IC50 in experiment [1] (setting [4]) came out at 0.1 nM; in experiment [2], 0.1 nM; in experiment [3] (setting [5]) it was 86.3 nM.
Turning to `COc1nc2cccc(-c3cc4c([nH]3)CCNC4=O)c2nc1NC(C)(C)C` [Example 276, 2-(3-(tert-butylamino)-2-methoxy-5-quinoxalinyl)-1,5,6,7-tetrahydro-4H-pyrrolo[3,2-c]pyridin-4-one], the concentration for half-maximal inhibition (IC50) was found to be 1.8 nM in experiment [1] (setting [4]), 5 nM in experiment [2] and 1220 nM in experiment [3] (setting [5]).
`Cc1nc2cccc(-c3cc4c([nH]3)CCNC4=O)c2nc1NC1(C)CCCCC1` [Example 155, 2-(2-methyl-3-((1-methylcyclohexyl)amino)quinoxalin-5-yl)-6,7-dihydro-1H-pyrrolo[3,2-c]pyridin-4(5H)-one]: the IC50 in experiment [1] came out at 0.7 nM; in experiment [2], 1.5 nM; in experiment [3] (setting [5]), 292 nM.
As for `Cc1nc2cccc(-c3cc4c([nH]3)C3(CC3)CNC4=O)c2nc1NC1CC1` [Example 77, 2′-(3-(cyclopropylamino)-2-methyl-5-quinoxalinyl)-5′,6′-dihydrospiro[cyclopropane-1,7′-pyrrolo[3,2-c]pyridin]-4′(1′H)-one], the IC50 in experiment [1] (setting [4]) was 1.6 nM; in experiment [2], 3.8 nM; in experiment [3] (Homo sapiens, KMS-12-BM, read-out: KMS-12-BM IC50 IP), 494 nM.
On to `Cc1nc2cccc(-c3cc4c(=O)[nH]cnc4[nH]3)c2nc1NC(C)(C)C` [Example 261, 6-(3-(tert-butylamino)-2-methylquinoxalin-5-yl)-3H-pyrrolo[2,3-d]pyrimidin-4(7H)-one], for which the IC50 in experiment [1] (setting [4]) stood at 1.22 nM; in experiment [2], 1.29 nM; in experiment [3] (setting [5]), 252 nM.
The corresponding values for `COCC(C)(C)Nc1nc2c(-c3cc4c([nH]3)CCNC4=O)cccc2nc1C` [Example 63, 2-(3-((2-methoxy-1,1-dimethylethyl)amino)-2-methyl-5-quinoxalinyl)-1,5,6,7-tetrahydro-4H-pyrrolo[3,2-c]pyridin-4-one] are 4.3 nM, 5.4 nM and 513 nM.
For `O=C1NCCc2[nH]c(-c3cccc4ccc(NC5CC5)nc34)cc21` [Example 99, 2-(2-(cyclopropylamino)quinolin-8-yl)-6,7-dihydro-1H-pyrrolo[3,2-c]pyridin-4(5H)-one] the same measures were 1.1 nM, 7 nM and 723 nM.
For `Cc1nc2cccc(-c3cc4c([nH]3)CCNC4=O)c2nc1N[C@H](C)C1CC1` [Example 271, 2-(3-(((1R)-1-cyclopropylethyl)amino)-2-methyl-5-quinoxalinyl)-1,5,6,7-tetrahydro-4H-pyrrolo[3,2-c]pyridin-4-one] the same measures were 1.3 nM, 2 nM and 418 nM.
Regarding `Cc1cc2cccc(-c3cc4c([nH]3)CCNC4=O)c2nc1Oc1ccccc1` [Example 104, 2-(3-methyl-2-phenoxyquinolin-8-yl)-6,7-dihydro-1H-pyrrolo[3,2-c]pyridin-4(5H)-one], in experiment [3] (setting [5]), the IC50 was found to be 5230 nM.
In the case of `Cc1nc2cccc(-c3cc4c([nH]3)CCNC4=O)c2nc1N[C@H]1CCC[C@@H](N)C1` (single isomer, unassigned) [Example 140, 2-(3-((cis-3-aminocyclohexyl)amino)-2-methylquinoxalin-5-yl)-6,7-dihydro-1H-pyrrolo[3,2-c]pyridin-4(5H)-one], the concentration for half-maximal inhibition (IC50) in experiment [3] (setting [5]) came to 1240 nM.
`CC[C@H]1CNC(=O)c2cc(-c3cccc4ccc(Nc5ccccc5)nc34)[nH]c21` [Example 239, (S)-7-ethyl-2-(2-(phenylamino)quinolin-8-yl)-6,7-dihydro-1H-pyrrolo[3,2-c]pyridin-4(5H)-one]: the IC50 in experiment [3] (setting [5]) was 1850 nM.
As for `CC1CNC(=O)c2cc(-c3cccc4ccc(Nc5ccccc5)nc34)[nH]c21` (single isomer, unassigned) [Example 29, 7-methyl-2-(2-(phenylamino)quinolin-8-yl)-6,7-dihydro-1H-pyrrolo[3,2-c]pyridin-4(5H)-one], in experiment [3] (setting [6]), the IC50 stood at 737 nM.
Still for that read-out and setting: with `Cc1nc2cccc(-c3cc4c([nH]3)CCNC4=O)c2nc1NC1CCCOC1` (single isomer, unassigned) [Example 209, 2-(2-methyl-3-((tetrahydro-2H-pyran-3-yl)amino)quinoxalin-5-yl)-6,7-dihydro-1H-pyrrolo[3,2-c]pyridin-4(5H)-one] the figure was 268 nM; with `CC1CNC(=O)c2cc(-c3cccc4ccc(Nc5ccccc5)nc34)[nH]c21` (single isomer, unassigned) [Example 30, 7-methyl-2-(2-(phenylamino)quinolin-8-yl)-6,7-dihydro-1H-pyrrolo[3,2-c]pyridin-4(5H)-one], 5890 nM.
Consider `Cc1nc2cccc(-c3cc4c([nH]3)CCNC4=O)c2nc1NC(C)C(C)C` (racemic) [Example 73, 2-(3-4(±)-1,2-dimethylpropyl)amino)-2-methyl-5-quinoxalinyl)-1,5,6,7-tetrahydro-4H-pyrrolo[3,2-c]pyridin-4-one], for which the IC50 in experiment [3] (setting [5]) turned out to be 107 nM.
For `Cc1nc2cccc(-c3cc4c([nH]3)CCNC4=O)c2nc1NC(C)(C)CCO` [Example 279, 2-(3-((3-hydroxy-1,1-dimethylpropyl)amino)-2-methyl-5-quinoxalinyl)-1,5,6,7-tetrahydro-4H-pyrrolo[3,2-c]pyridin-4-one], in experiment [3] (setting [5]), the half-maximal inhibitory concentration (IC50) was 252 nM.
In the case of `CC1(C)CCCN1c1cnc2cccc(-c3cc4c([nH]3)CCNC4=O)c2n1` [Example 216], the half-maximal inhibitory concentration (IC50) in experiment [3] (setting [5]) is 225 nM.
The same measure, in the same setting: in the case of `CC[C@@H]1CNC(=O)c2cc(-c3cccc4ccc(Nc5ccccc5)nc34)[nH]c21` [Example 25, (R)-7-ethyl-2-(2-(phenylamino)quinolin-8-yl)-6,7-dihydro-1H-pyrrolo[3,2-c]pyridin-4(5H)-one] it was 4560 nM.
Take `CC(C)(C)Nc1nc2c(-c3cc4c([nH]3)CCNC4=O)cccc2nc1C=O` [Example 282, 3-(tert-butylamino)-5-(4-oxo-4,5,6,7-tetrahydro-1H-pyrrolo[3,2-c]pyridin-2-yl)-2-quinoxalinecarbaldehyde]: the IC50 in experiment [1] (setting [4]) worked out at 5.3 nM; in experiment [3] (setting [5]), 3440 nM.
On to `CC1CNC(=O)c2cc(-c3cccc4ccc(Nc5ccccc5)nc34)[nH]c21` (racemic) [Example 238, rac-7-methyl-2-(2-(phenylamino)quinolin-8-yl)-6,7-dihydro-1H-pyrrolo[3,2-c]pyridin-4(5H)-one], for which the 50% inhibitory concentration (IC50) in experiment [3] (setting [5]) stood at 1280 nM.
Still for that read-out and setting: with `Cc1nc2cccc(-c3cc4c([nH]3)CCNC4=O)c2nc1NC1CCCOC1` (single isomer, unassigned) [Example 208, 2-(2-methyl-3-((tetrahydro-2H-pyran-3-yl)amino)quinoxalin-5-yl)-6,7-dihydro-1H-pyrrolo[3,2-c]pyridin-4(5H)-one] the figure was 366 nM.
In the case of `CCC1CNC(=O)c2cc(-c3cccc4ccc(Nc5ccccc5)nc34)[nH]c21` (racemic) [Example 24, rac-7-ethyl-2-(2-(phenylamino)quinolin-8-yl)-6,7-dihydro-1H-pyrrolo[3,2-c]pyridin-4(5H)-one], the IC50 in experiment [3] (setting [5]) came out at 1410 nM.
For `Cc1nc2cccc(-c3cc4c([nH]3)CCNC4=O)c2nc1CC(C)(C)C` [Example 272, 2-(3-(2,2-dimethylpropyl)-2-methyl-5-quinoxalinyl)-1,5,6,7-tetrahydro-4H-pyrrolo[3,2-c]pyridin-4-one], the figures for the IC50 in experiment [2] and in experiment [3] (setting [5]) were 7.8 nM and 1530 nM, respectively.
Regarding `CC(c1ccccc1)c1ccc2cccc(-c3cc4c([nH]3)CCNC4=O)c2n1` (single isomer, unassigned) [Example 116, 2-(2-(1-phenylethyl)quinolin-8-yl)-6,7-dihydro-1H-pyrrolo[3,2-c]pyridin-4(5H)-one], the IC50 in experiment [3] (setting [5]) is 7540 nM.
